1 molecule from paper doi:10.1101/2023.11.24.568596v1 (biorxiv, 2023) can be followed below.

SMILES strings stand for the structures.

Some targets named below: PAK1 (Homo sapiens, UniProt Q13153); SRC (Homo sapiens, UniProt P12931); TAF1 (Homo sapiens, UniProt P21675); SRPK1 (Homo sapiens, UniProt Q96SB4); MST4 (Homo sapiens, UniProt Q9P289).
Details in all cases: binder
For another assay, the target named is T1, MST1 (Homo sapiens, UniProt Q13043).
T1 sequence (Q13043 1-487): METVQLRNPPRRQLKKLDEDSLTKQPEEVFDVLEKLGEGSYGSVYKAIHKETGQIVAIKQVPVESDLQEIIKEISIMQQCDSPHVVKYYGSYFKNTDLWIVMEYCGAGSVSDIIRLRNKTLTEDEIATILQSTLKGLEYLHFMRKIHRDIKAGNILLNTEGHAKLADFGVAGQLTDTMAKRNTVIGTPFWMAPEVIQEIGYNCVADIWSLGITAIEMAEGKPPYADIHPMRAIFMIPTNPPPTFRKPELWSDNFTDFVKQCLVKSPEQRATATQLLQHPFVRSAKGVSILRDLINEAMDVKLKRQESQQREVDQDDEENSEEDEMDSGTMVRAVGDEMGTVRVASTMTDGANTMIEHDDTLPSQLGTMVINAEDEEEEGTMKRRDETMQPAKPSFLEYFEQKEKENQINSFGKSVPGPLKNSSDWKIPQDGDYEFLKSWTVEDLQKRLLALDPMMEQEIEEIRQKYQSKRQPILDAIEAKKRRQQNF

The target in another assay is T2, ULK3 (Homo sapiens, UniProt Q6PHR2).
T2 sequence (Q6PHR2 1-472): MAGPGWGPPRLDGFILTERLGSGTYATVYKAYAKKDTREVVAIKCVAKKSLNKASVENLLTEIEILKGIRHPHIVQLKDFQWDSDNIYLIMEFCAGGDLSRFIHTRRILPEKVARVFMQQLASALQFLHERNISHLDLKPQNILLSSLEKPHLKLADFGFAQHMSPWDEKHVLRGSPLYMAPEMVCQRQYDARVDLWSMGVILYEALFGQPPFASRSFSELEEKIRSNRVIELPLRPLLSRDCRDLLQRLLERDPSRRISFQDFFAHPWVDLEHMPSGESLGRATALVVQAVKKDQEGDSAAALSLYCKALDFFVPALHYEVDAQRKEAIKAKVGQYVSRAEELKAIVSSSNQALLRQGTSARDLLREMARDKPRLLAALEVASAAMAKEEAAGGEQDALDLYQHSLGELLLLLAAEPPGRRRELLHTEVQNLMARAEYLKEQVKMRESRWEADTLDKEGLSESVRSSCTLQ

A further assay has as its target T3, TTK (Homo sapiens, UniProt P33981).
T3 sequence (P33981 1-857): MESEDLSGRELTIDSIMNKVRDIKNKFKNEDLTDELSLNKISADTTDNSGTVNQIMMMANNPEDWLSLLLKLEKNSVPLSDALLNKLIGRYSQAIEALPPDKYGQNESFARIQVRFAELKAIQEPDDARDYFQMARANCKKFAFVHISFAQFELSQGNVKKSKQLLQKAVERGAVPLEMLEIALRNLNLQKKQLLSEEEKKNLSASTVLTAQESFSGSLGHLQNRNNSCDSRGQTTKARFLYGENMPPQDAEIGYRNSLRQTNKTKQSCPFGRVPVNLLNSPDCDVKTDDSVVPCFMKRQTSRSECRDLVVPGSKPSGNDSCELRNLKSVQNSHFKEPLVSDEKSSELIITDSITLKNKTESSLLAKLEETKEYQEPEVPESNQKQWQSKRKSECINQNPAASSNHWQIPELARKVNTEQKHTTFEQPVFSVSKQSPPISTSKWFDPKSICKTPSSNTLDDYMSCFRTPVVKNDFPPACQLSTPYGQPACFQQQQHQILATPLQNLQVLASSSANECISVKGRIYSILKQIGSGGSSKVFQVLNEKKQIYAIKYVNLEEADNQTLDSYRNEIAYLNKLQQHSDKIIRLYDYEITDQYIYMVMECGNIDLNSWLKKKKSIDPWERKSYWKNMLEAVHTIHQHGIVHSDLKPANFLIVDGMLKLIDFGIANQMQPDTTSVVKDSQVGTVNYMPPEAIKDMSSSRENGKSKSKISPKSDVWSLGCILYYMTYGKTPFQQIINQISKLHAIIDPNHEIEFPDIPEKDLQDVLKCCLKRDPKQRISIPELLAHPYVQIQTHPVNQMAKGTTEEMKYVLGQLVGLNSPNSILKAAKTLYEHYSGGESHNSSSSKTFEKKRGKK

Chain of PAK1 (Q13153 whole entry): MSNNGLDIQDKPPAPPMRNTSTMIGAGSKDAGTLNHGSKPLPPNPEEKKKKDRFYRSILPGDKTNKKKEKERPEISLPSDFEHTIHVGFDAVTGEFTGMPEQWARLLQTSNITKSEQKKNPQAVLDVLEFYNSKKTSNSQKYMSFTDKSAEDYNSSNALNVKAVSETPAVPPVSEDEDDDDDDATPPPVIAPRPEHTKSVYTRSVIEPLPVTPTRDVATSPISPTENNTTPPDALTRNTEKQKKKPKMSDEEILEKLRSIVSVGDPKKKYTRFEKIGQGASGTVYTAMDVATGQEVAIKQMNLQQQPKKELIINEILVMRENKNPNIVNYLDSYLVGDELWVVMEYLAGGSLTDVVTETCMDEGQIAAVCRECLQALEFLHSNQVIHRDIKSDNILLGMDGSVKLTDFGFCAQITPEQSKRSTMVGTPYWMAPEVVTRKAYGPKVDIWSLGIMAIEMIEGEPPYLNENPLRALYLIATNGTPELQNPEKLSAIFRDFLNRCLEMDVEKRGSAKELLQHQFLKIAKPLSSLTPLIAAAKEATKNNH
Chain of MST4 (Q9P289 whole entry): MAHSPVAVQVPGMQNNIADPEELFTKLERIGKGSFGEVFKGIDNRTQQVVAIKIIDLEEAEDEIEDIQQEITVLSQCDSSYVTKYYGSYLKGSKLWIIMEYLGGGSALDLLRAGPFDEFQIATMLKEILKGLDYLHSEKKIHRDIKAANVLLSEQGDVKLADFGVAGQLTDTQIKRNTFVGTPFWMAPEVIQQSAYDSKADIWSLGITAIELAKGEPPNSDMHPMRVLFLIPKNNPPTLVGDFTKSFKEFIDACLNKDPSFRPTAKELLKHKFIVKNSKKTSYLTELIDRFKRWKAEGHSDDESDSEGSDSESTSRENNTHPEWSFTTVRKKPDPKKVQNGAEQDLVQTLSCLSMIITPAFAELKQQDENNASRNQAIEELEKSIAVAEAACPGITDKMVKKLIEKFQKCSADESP
Chain of SRPK1 (Q96SB4 whole entry): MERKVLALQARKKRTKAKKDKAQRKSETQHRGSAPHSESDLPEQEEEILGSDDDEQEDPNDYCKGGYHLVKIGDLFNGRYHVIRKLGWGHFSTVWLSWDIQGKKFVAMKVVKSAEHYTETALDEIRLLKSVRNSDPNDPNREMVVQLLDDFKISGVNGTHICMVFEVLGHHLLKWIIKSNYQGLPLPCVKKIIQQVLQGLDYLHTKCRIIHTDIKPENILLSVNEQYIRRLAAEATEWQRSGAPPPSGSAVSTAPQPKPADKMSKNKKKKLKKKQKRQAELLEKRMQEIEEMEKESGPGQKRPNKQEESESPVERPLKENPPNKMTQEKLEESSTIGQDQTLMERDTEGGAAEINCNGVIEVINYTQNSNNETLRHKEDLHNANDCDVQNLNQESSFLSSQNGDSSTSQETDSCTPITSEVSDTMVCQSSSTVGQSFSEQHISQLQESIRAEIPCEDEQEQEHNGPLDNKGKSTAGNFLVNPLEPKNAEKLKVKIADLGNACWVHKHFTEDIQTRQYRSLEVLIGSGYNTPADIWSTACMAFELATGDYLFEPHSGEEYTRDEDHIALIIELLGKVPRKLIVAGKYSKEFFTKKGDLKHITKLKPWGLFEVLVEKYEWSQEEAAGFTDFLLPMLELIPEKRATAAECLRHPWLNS
Chain of TAF1 (P21675 whole entry): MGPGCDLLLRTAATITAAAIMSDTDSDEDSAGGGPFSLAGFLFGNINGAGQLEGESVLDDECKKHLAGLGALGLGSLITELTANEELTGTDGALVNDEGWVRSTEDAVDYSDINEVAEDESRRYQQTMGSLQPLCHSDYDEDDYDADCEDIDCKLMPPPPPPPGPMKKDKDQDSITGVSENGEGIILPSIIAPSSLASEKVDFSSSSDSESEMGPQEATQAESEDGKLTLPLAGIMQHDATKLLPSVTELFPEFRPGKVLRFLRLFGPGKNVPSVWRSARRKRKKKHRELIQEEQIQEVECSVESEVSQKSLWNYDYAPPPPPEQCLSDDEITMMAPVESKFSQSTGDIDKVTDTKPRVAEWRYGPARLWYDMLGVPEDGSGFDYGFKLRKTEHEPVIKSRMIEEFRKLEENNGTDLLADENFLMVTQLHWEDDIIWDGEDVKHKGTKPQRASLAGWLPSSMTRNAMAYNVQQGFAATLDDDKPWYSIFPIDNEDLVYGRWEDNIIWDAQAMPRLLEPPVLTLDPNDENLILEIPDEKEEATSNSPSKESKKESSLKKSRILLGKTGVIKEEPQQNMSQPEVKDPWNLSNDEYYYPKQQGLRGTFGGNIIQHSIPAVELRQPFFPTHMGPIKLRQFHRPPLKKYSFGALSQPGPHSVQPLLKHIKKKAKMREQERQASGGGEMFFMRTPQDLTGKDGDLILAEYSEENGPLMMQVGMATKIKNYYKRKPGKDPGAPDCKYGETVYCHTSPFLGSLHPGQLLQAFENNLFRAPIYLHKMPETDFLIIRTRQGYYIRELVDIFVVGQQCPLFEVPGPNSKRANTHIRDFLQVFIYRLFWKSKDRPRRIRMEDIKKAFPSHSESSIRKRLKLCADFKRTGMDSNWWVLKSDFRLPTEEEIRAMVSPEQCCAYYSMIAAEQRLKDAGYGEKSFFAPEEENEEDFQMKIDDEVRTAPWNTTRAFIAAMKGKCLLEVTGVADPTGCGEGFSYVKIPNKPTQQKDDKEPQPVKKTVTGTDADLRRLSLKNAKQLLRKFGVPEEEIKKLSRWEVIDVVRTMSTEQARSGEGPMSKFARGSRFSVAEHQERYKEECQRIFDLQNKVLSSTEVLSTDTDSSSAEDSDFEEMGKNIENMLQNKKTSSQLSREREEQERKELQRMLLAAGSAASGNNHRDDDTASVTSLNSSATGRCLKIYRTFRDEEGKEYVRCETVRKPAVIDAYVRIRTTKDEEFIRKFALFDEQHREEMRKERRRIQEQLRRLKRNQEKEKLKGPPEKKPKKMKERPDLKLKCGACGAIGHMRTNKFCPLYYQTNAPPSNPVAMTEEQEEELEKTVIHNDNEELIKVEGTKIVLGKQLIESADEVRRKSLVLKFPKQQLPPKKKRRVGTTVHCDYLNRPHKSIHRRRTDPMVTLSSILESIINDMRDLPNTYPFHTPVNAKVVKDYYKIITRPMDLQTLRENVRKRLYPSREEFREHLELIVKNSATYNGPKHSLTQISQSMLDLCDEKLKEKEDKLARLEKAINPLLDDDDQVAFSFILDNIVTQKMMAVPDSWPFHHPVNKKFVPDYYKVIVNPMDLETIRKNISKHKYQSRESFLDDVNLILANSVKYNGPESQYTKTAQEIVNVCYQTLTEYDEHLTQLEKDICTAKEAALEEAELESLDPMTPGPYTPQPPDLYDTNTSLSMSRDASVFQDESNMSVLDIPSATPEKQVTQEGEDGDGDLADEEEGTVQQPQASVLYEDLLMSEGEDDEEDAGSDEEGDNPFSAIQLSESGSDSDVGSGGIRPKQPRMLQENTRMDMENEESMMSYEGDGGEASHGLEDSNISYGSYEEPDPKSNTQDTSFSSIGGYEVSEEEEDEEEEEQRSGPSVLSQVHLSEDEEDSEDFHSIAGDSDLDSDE
Chain of SRC (P12931 whole entry): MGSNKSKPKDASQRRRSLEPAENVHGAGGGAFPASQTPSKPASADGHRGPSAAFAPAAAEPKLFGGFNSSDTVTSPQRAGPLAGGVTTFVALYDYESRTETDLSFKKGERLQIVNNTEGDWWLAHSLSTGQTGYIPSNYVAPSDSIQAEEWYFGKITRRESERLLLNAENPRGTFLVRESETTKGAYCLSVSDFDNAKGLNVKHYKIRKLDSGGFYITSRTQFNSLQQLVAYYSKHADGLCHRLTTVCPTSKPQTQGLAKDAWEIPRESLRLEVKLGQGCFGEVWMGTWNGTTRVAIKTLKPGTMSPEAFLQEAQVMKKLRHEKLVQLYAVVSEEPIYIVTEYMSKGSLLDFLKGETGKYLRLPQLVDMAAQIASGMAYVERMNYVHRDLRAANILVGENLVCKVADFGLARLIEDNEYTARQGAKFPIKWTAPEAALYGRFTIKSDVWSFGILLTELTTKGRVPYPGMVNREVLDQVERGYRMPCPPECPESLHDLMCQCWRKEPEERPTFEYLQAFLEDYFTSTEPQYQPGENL

For `Cc1cccc(-c2ccc(-c3cc4cnc(Nc5ccc(C)c(O)c5)nc4n(CCCCN)c3=O)c(Cl)c2)n1` [compound 32, 8-(4-Aminobutyl)-6-(2-chloro-4-(6-methylpyridin-2-yl)phenyl)-2-((3-hydroxy-4-methylphenyl)amino)pyrido[2,3-d]pyrimidin-7(8H)-one], the “dTm PAK1” value at PAK1 was 9.1 °C. Also, the “dTm MST1” value on MST1 was 8.1 °C. Also, the “ΔTm 32” value on ULK3 amounted to 14.3 °C; on SRC, 5.1 °C; at TAF1, 0.5 °C; at TTK it was 2.2 °C; on SRPK1 it was 0.4 °C. Besides, the “dTm MST4” value on MST4 stood at 15.9 °C.
